Experimental data taken from ChEMBL document CHEMBL5620419, “Discovery of new Lenalidomide derivatives as potent and selective GSPT1 degraders” (Eur J Med Chem, 2023).
pEC50: −log10 of the molar value.

Biological target: Protein cereblon/Eukaryotic peptide chain release factor GTP-binding subunit ERF3A (Homo sapiens, UniProt P15170+Q96SW2)
Assay: PROTAC activity at CRBN/GSPT1 in human U-937 cells assessed as degradation of GSPT1 measured after 6 hrs by Western blot analysis
Type: cell-based

Sequence of Protein cereblon/Eukaryotic peptide chain release factor GTP-binding subunit ERF3A (Q96SW2 whole entry): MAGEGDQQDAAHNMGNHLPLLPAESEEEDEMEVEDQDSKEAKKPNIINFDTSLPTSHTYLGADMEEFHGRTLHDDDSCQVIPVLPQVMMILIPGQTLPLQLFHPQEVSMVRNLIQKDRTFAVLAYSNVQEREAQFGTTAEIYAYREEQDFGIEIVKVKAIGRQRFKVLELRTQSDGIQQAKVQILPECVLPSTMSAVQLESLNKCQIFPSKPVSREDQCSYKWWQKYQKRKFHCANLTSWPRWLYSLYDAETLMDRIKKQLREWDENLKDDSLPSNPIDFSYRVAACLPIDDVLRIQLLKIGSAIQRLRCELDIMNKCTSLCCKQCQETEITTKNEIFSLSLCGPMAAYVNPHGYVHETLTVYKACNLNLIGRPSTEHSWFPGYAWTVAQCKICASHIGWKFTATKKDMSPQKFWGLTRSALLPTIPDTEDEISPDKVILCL
Sequence of Protein cereblon/Eukaryotic peptide chain release factor GTP-binding subunit ERF3A (P15170 whole entry): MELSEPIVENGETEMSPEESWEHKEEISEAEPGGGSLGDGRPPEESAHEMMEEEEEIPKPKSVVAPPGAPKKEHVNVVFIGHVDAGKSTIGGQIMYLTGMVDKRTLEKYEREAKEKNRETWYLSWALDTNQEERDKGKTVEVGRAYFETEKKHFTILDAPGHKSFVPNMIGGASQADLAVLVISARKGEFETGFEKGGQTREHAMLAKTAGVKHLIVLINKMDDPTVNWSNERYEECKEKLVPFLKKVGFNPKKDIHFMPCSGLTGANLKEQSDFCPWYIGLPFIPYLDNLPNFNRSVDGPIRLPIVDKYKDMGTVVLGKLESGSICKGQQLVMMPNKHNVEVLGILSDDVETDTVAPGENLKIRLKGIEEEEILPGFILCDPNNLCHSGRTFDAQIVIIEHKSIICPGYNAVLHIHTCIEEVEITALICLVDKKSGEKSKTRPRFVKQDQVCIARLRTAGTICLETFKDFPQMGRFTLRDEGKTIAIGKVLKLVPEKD

Row | SMILES | pEC50
1 | Cc1c(Cl)cc(NC(=O)CCc2ccc3c(c2)C(=O)N(C2CCC(=O)NC2=O)C3)cc1CN1CCN(C2CCOCC2)CC1 (configuration not stated) | 6.60
2 | Cc1ccc(NC(=O)COc2ccc3c(c2)C(=O)N(C2CCC(=O)NC2=O)C3)cc1Cl (configuration not stated) | < 5.00
